Results reported in BindingDB's records for doi:10.1021/acsmedchemlett.8b00158 (Utah State University, 2018).

Test: Inhibition of recombinant human Cx26 expressed in Escherichia coli LB2003 assessed as reduction in cell growth measured after 18 hrs

Row | SMILES | IC50
1 | NC[C@H]1O[C@H](O[C@H]2[C@H](O)[C@@H](O[C@@H]3O[C@H](COCc4cccc5ccccc45)[C@@H](OCc4cccc5ccccc45)[C@H](N)[C@H]3O)[C@H](N)C[C@@H]2N)[C@H](O)[C@@H](O)[C@@H]1O | 6.6 µM
2 | CO[C@@H]1[C@@H](O[C@@H]2O[C@H](COCc3ccccc3)[C@@H](OCc3ccccc3)[C@H](N)[C@H]2OC)[C@H](N)C[C@H](N)[C@H]1O[C@H]1O[C@H](CN)[C@@H](OC)[C@H](OC)[C@H]1OC | 8.4 µM
3 | CCCCCCO[C@H]1[C@H](N)[C@@H](O)[C@H](O[C@@H]2[C@@H](O)[C@H](O[C@H]3O[C@H](CN)[C@@H](O)[C@H](O)[C@H]3O)[C@@H](N)C[C@H]2N)O[C@@H]1CO | 13.5 µM
4 | NC[C@H]1O[C@H](O[C@H]2[C@H](O)[C@@H](O[C@@H]3O[C@H](COCc4ccc5ccccc5c4)[C@@H](OCc4ccc5ccccc5c4)[C@H](N)[C@H]3O)[C@H](N)C[C@@H]2N)[C@H](O)[C@@H](O)[C@@H]1O | 4.9 µM
5 | NC[C@H]1O[C@H](O[C@H]2[C@H](O)[C@@H](O[C@@H]3O[C@H](COCc4cccc(-c5ccccc5)c4)[C@@H](OCc4cccc(-c5ccccc5)c4)[C@H](N)[C@H]3O)[C@H](N)C[C@@H]2N)[C@H](O)[C@@H](O)[C@@H]1O | 6.2 µM
6 | NC[C@H]1O[C@H](O[C@H]2[C@H](O)[C@@H](O[C@@H]3O[C@H](COCc4ccc(Cl)cc4)[C@@H](OCc4ccc(Cl)cc4)[C@H](N)[C@H]3O)[C@H](N)C[C@@H]2N)[C@H](O)[C@@H](O)[C@@H]1O | 2.5 µM
7 | CCCCCCOC[C@H]1O[C@@H](O[C@@H]2[C@@H](O)[C@H](O[C@H]3O[C@H](CN)[C@@H](O)[C@H](O)[C@H]3O)[C@@H](N)C[C@H]2N)[C@H](O)[C@@H](N)[C@@H]1OCCCCCC | 6.2 µM
8 | COc1ccc(COC[C@H]2O[C@@H](O[C@@H]3[C@@H](O)[C@H](O[C@H]4O[C@H](CN)[C@@H](O)[C@H](O)[C@H]4O)[C@@H](N)C[C@H]3N)[C@H](O)[C@@H](N)[C@@H]2OCc2ccc(OC)cc2)cc1 | 13 µM
9 | NC[C@H]1O[C@H](O[C@H]2[C@H](O)[C@@H](O[C@@H]3O[C@H](COCc4ccc(F)cc4)[C@@H](OCc4ccc(F)cc4)[C@H](N)[C@H]3O)[C@H](N)C[C@@H]2N)[C@H](O)[C@@H](O)[C@@H]1O | 8.1 µM
10 | Cc1ccc(COC[C@H]2O[C@@H](O[C@@H]3[C@@H](O)[C@H](O[C@H]4O[C@H](CN)[C@@H](O)[C@H](O)[C@H]4O)[C@@H](N)C[C@H]3N)[C@H](O)[C@@H](N)[C@@H]2OCc2ccc(C)cc2)cc1 | 4.3 µM
11 | CCCCCCCCCOC[C@H]1O[C@@H](O[C@@H]2[C@@H](O)[C@H](O[C@H]3O[C@H](CN)[C@@H](O)[C@H](O)[C@H]3O)[C@@H](N)C[C@H]2N)[C@H](O)[C@@H](N)[C@@H]1OCCCCCCCCC | 18.8 µM
12 | CCCCCCCCOC[C@H]1O[C@@H](O[C@@H]2[C@@H](O)[C@H](O[C@H]3O[C@H](CN)[C@@H](O)[C@H](O)[C@H]3O)[C@@H](N)C[C@H]2N)[C@H](O)[C@@H](N)[C@@H]1OCCCCCCCC | 13.6 µM
13 | CCCCOC[C@H]1O[C@@H](O[C@@H]2[C@@H](O)[C@H](O[C@H]3O[C@H](CN)[C@@H](O)[C@H](O)[C@H]3O)[C@@H](N)C[C@H]2N)[C@H](O)[C@@H](N)[C@@H]1OCCCC | 19 µM
